Measurements reported in patent US9212168B2 (priority 2011, dated 2015).

Test system: HCV genotype 1a replicon
Assay: HCV genotype 1a replicon assay (NS3 protease activity readout)
Format: cell-based, hepatitis C virus
Details: for Genotype 1a: HCV genotype 1a replicon; for EC50: Hepatitis C virus, read-out: Genotype 1a, HCV genotype 1a replicon
Protocol: Assay 2: HCV Genotype 1a Replicon Assay
The HCV genotype 1a replicon cell line was obtained from Apath LLC (APC89; Huh7.5 cell background). This subgenomic replicon contains the N-terminus of the HCV core protein fused to the neomycin-resistance selectable marker. The EMCV IRES lies downstream and drives expression of the non-structural proteins NS3-NS5B. Compound potencies were determined using the NS3-specific protease activity in lysates as a measurement of compound inhibition of replicon levels.
Cells were grown at 37° C. in a 5% CO2 humidified incubator in DMEM (Invitrogen) with 10% FBS (HyClone), 1×NEAA (Invitrogen), 1× Pen-Strep (Invitrogen), and 850 μg/mL G418 (Invitrogen). On day 1 of the assay, cells were plated at 15,000 cells/well in black 96-well tissue culture plates (Costar) in 200 μL media lacking G418. Four hours later, once the cells had adhered, the media was removed and replaced with media (no G418) containing dose-responses of test compounds. Compounds were initially diluted in DMSO and then diluted another 200× in media to bring the final DMSO concentration down to 0.5%. The cells were incubated with test compounds for 48 or 72 hours. At the end of the incubation period, media and compound were removed from the plates.
To determine the NS3-specific protease activity in lysates, the cells were lysed at room temperature in 50 μL/well of 50 mM Hepes pH 7.5, 150 mM NaCl, 15% Glycerol, 0.15% Triton X-100, 10 mM DTT for 20 minutes with shaking. 50 μL of an NS3/4a protease-specific FRET substrate (Anaspec RET S1 Cat#22991) was then added to the wells at a final concentration of 15 μM. The plates were incubated at 37° C. for 20 minutes, which corresponds to a timepoint at which the protease activity is still in the linear phase. Protease activity was determined by measuring fluorescence (Excitation: 340 nm; Emission: 509 nm).
To analyze the data, the fluorescence was plotted vs. the compound concentration, and EC50 values were determined from a 4-parameter robust fit model using GraphPad Prism software.

## COC(=O)NC(C(=O)N1C[C@@H](OC)C[C@H]1c1nc(-c2ccc(-c3cc(Cl)c(NC(=O)c4ccc(N5CCN(C(=O)C(C)(C)CO)C[C@H]5C)nc4)cc3C(F)(F)F)cc2)c[nH]1)C1CCS(=O)(=O)CC1 (single isomer, unassigned) [Example 19-12]
  Genotype 1a: D (D represents pEC50>10 (EC50<0.1 nM))

## COC(=O)N[C@H](C(=O)N1C[C@@H](O)C[C@H]1c1nc(-c2ccc(-c3cc(Cl)c(NC(=O)c4ccc(N5CCN(C(=O)C(C)(C)C)C[C@H]5C)nc4)cc3OC(F)(F)F)cc2)c[nH]1)C(C)C [Example 26-8]
  Genotype 1a: C (C represents pEC50 between and 9 and about 10, (EC50 between 1 nM and 0.1 nM))

## COC(=O)N[C@H](C(=O)N1C[C@@H](C)C[C@H]1c1nc(-c2ccc(-c3cc(Cl)c(NC(=O)c4ccc(N5CCN(C(=O)[C@H]6CCCN6S(C)(=O)=O)C[C@H]5C)nc4)cc3OC(F)(F)F)cc2)c[nH]1)C(C)C [Example 1-39]
  Genotype 1a: D (D represents pEC50>10 (EC50<0.1 nM))

## COC(=O)N[C@H](C(=O)N1C[C@@H](C)C[C@H]1c1nc(-c2ccc(-c3ccc(C(=O)Nc4ccc(N5C[C@H](C)N(C(=O)C(C)(C)NC(=O)C6CC6)C[C@H]5C)nc4)cc3OC(F)(F)F)cc2)c[nH]1)C(C)C [Example 4-39]
  Genotype 1a: C (C represents pEC50 between and 9 and about 10, (EC50 between 1 nM and 0.1 nM))

## COC(=O)N[C@H](C(=O)N1C[C@@H](C)C[C@H]1c1nc(-c2ccc(-c3cc(Cl)c(NC(=O)c4ccc(N5CCN(C(=O)C(C)(C)C)C[C@H]5C)nc4)cc3C(F)(F)F)cc2)c[nH]1)C1CCCC1 [Example 19-11]
  Genotype 1a: D (D represents pEC50>10 (EC50<0.1 nM))

## CCOCCC(C)(C)C(=O)N1CCN(c2ccc(C(=O)Nc3cc(OC(F)(F)F)c(-c4ccc(-c5c[nH]c([C@@H]6C[C@H](C)CN6C(=O)[C@@H](NC(=O)OC)C(C)C)n5)cc4)cc3Cl)cn2)[C@H](C)C1 [Example 12-3]
  EC50: < 0.1 nM

## COC(=O)N[C@H](C(=O)N1C[C@@H]([S+](C)[O-])C[C@H]1c1nc(-c2ccc(-c3ccc(C(=O)Nc4ccc(N5CCN(C(=O)C6CC6(C)C)C[C@H]5C)nc4)cc3OC(F)(F)F)cc2)c[nH]1)C(C)C (stereo partly shown) [Example 6-18]
  EC50: 0.1 to 1 nM

## COC(=O)N[C@H](C(=O)N1C[C@@H](N(C)C)C[C@H]1c1nc(-c2ccc(-c3ccc(C(=O)Nc4ccc(N5CCN(C(=O)N(C)C)C[C@H]5C)nc4)cc3OC(F)(F)F)cc2)c(Cl)[nH]1)C(C)C [Example 10-4]
  EC50: 0.1 to 1 nM

## CNC(=O)N1C[C@@H](C)N(c2ccc(C(=O)Nc3cc(OC(F)(F)F)c(-c4ccc(-c5c[nH]c([C@@H]6C[C@H](C)CN6C(=O)[C@@H](NC(=O)OC)C(C)(C)C)n5)cc4)cc3Cl)cn2)C[C@@H]1C [Example 7-1]
  Genotype 1a: D (D represents pEC50>10 (EC50<0.1 nM))

## COCC1(C(=O)N2CCN(c3ccc(C(=O)Nc4cc(OC(F)(F)F)c(-c5ccc(-c6c[nH]c([C@@H]7C[C@H](C)CN7C(=O)[C@@H](NC(=O)OC)C(C)C)n6)cc5)cc4Cl)cn3)[C@H](C)C2)CC1 [Example 12-44]
  EC50: < 0.1 nM

## COC(=O)N[C@H](C(=O)N1C[C@@H](C)C[C@H]1c1nc(-c2ccc(-c3cc(Cl)c(NC(=O)c4ccc(N5CCN(C(=O)C6CC(CO)C6)C[C@H]5C)nc4)cc3OC(F)(F)F)cc2)c[nH]1)C(C)C (stereo partly shown) [Example 12-55]
  EC50: < 0.1 nM

## COC(=O)N[C@H](C(=O)N1C[C@@H](C)C[C@H]1c1nc(-c2ccc(-c3cc(Cl)c(NC(=O)c4ccc(N5CCN(C(=O)C(C)(C)CNS(C)(=O)=O)C[C@H]5C)nc4)cc3OC(F)(F)F)cc2)c[nH]1)C(C)C [Example 12-46]
  EC50: < 0.1 nM

## COC(=O)N[C@H](C(=O)N1C[C@@H](C(N)=O)C[C@H]1c1nc(-c2ccc(-c3cc(Cl)c(NC(=O)c4ccc(N5CCN(C(=O)OC(C)(C)C)C[C@H]5C)nc4)cc3OC(F)(F)F)cc2)c[nH]1)C(C)C [Example 15-10]
  EC50: 1 to 10 nM

## COC(=O)N[C@H](C(=O)N1C[C@@H](C)C[C@H]1c1nc(-c2ccc(-c3cc(F)c(NC(=O)c4ccc(N5CCN(C(=O)c6c[nH]cn6)C[C@H]5C)nc4)cc3OC(F)(F)F)cc2)c[nH]1)C(C)C [Example 1-25]
  Genotype 1a: D (D represents pEC50>10 (EC50<0.1 nM))

## COC(=O)NC(C(=O)N1CC(C)CC1c1nc(-c2ccc(-c3cc(Cl)c(NC(=O)c4ccc(N5CCN(C(=O)C(C)(C)C)CC5C)nc4)cc3C(F)(F)F)cc2)c[nH]1)C1CC(C)OC(C)C1 (stereo not shown) [Example 19-10]
  Genotype 1a: A (A represents a pEC50 value between 6 and 8 (EC50 between 1 μM and 10 nM))

## COCC(=O)N1CCC[C@@]1(C)C(=O)N1CCN(c2ccc(NC(=O)c3ccc(-c4ccc(-c5c[nH]c([C@@H]6CC(C)(C)CN6C(=O)[C@@H](NC(=O)OC)C(C)C)n5)cc4)c(OC(F)(F)F)c3)cn2)[C@H](C)C1 [Example 6-7]
  EC50: < 0.1 nM

## COC(=O)NC(C(=O)N1CC(OC)CC1c1nc(-c2ccc(-c3ccc(NC(=O)c4ccc(N5CCN(C(=O)C(C)(C)C)CC5C)nc4)cc3OC(F)(F)F)cc2)c[nH]1)C(C)OC (stereo not shown) [Example 16-11]
  Genotype 1a: D (D represents pEC50>10 (EC50<0.1 nM))

## COC(=O)N[C@H](C(=O)N1C[C@H](OC)C[C@H]1c1nc(-c2ccc(-c3cc(Cl)c(NC(=O)c4ccc(N5CCN(C(=O)C(C)(C)C)C[C@H]5C)nc4)cc3OC(F)(F)F)cc2)c[nH]1)C(C)C [Example 5-19]
  EC50: < 0.1 nM

## COC(=O)NC(C(=O)N1CC(OC)CC1c1nc(-c2ccc(-c3ccc(NC(=O)c4ccc(N5CCN(C(=O)C(C)(C)C)CC5C)nc4)cc3OC(F)(F)F)cc2)c[nH]1)C(C)O (stereo not shown) [Example 16-10]
  Genotype 1a: C (C represents pEC50 between and 9 and about 10, (EC50 between 1 nM and 0.1 nM))

## COC(=O)N[C@H](C(=O)N1C[C@@H](C)C[C@H]1c1nc(-c2ccc(-c3cc(Cl)c(NC(=O)c4ccc(N5CCN(C(=O)CC6CCOCC6)C[C@H]5C)nc4)cc3OC(F)(F)F)cc2)c[nH]1)C(C)C [Example 12-28]
  EC50: < 0.1 nM

## COC(=O)N[C@@H](C(=O)N1C[C@@H](OC)C[C@H]1c1nc(-c2ccc(-c3cc(Cl)c(NC(=O)c4ccc(N5CCN(C(=O)C(C)(C)CO)C[C@H]5C)nc4)cc3C(F)(F)F)cc2)c[nH]1)C1CCCCC1 [Example 19-14]
  Genotype 1a: A (A represents a pEC50 value between 6 and 8 (EC50 between 1 μM and 10 nM))

## COC[C@H]1C[C@@H](c2nc(-c3ccc(-c4ccc(C(=O)Nc5ccc(N6CCN(C(=O)C(C)(C)C)C[C@H]6C)nc5)c(Cl)c4OC(F)(F)F)cc3)c[nH]2)N(C(=O)[C@@H](NC(=O)OC)C(C)C)C1 [Example 25-7]
  Genotype 1a: B (B represents pEC50 between 8 and 9 (EC50 between 1 and 10 nM))

## COC(=O)N[C@H](C(=O)N1C[C@@H](C)C[C@H]1c1nc(-c2ccc(-c3cc(F)c(NC(=O)c4ccc(N5CCN(C(=O)C6CC67CC7)C[C@H]5C)nc4)cc3F)cc2)c[nH]1)C(C)C (stereo partly shown) [Example 1-90]
  Genotype 1a: C (C represents pEC50 between and 9 and about 10, (EC50 between 1 nM and 0.1 nM))

## COC(=O)N[C@H](C(=O)N1C[C@@H](C)C[C@H]1c1nc(-c2ccc(-c3ccc(NC(=O)c4ccc(N5CCN(C(=O)C(C)(C)C)C[C@H]5C)nc4)cc3C(F)(F)F)cc2)c[nH]1)C(C)C [Example 1-63]
  Genotype 1a: D (D represents pEC50>10 (EC50<0.1 nM))

## COC(=O)N[C@H](C(=O)N1C[C@@H](C)C[C@H]1c1nc(-c2ccc(-c3cc(F)c(C(=O)Nc4ccc(N5CCN(C(=O)C(C)(C)C)C[C@H]5C)nc4)cc3OC(F)(F)F)cc2)c(Cl)[nH]1)C(C)C [Example 4-45]
  Genotype 1a: C (C represents pEC50 between and 9 and about 10, (EC50 between 1 nM and 0.1 nM))

## CNC(=O)N1CCN(c2ccc(NC(=O)c3ccc(-c4ccc(-c5c[nH]c([C@@H]6C[C@H](C)CN6C(=O)[C@@H](NC(=O)OC)C(C)C)n5)cc4)c(OC(F)(F)F)c3)cn2)[C@H](C)C1 [Example 4-34]
  Genotype 1a: C (C represents pEC50 between and 9 and about 10, (EC50 between 1 nM and 0.1 nM))

## CNC(=O)N1C[C@@H](C)N(c2ccc(C(=O)Nc3cc(OC(F)(F)F)c(-c4ccc(-c5c[nH]c([C@@H]6C[C@H](OC)CN6C(=O)[C@@H](NC(=O)OC)C6CCOCC6)n5)cc4)cc3Cl)cn2)C[C@@H]1C [Example 28-8]
  Genotype 1a: D (D represents pEC50>10 (EC50<0.1 nM))

## CNC(=O)N1C[C@@H](C)N(c2ccc(C(=O)Nc3cc(OC(F)(F)F)c(-c4ccc(-c5c[nH]c([C@@H]6C[C@H](C)CN6C(=O)C(c6ccccc6)N(C)C)n5)cc4)cc3Cl)cn2)C[C@@H]1C (stereo partly shown) [Example 7-11]
  EC50: < 0.1 nM

## COC(=O)N[C@H](C(=O)N1C[C@@H](S(C)(=O)=O)C[C@H]1c1nc(-c2ccc(-c3ccc(C(=O)Nc4ccc(N5CCN(C(=O)[C@H]6CC6(C)C)C[C@H]5C)nc4)cc3OC(F)(F)F)cc2)c[nH]1)C(C)C [Example 6-21]
  EC50: 0.1 to 1 nM

## COC(=O)N[C@H](C(=O)N1C[C@@H](C)C[C@H]1c1nc(-c2ccc(-c3cc(Cl)c(NC(=O)c4ccc(N5CCN(C(=O)C(C)(C)C)C[C@H]5C)nc4)cc3OC(F)(F)F)cc2)c[nH]1)C1CCCCC1 [Example 13-39]
  EC50: 1 to 10 nM

## COC(=O)N[C@H](C(=O)N1C[C@@H](C)C[C@H]1c1nc(-c2ccc(-c3cc(Cl)c(NC(=O)c4ccc(N5CCN(C(=O)C(C)(C)CO)C[C@H]5C)nc4)cc3OC(F)(F)F)cc2)c(CO)[nH]1)C(C)C [Example 5-13]
  EC50: < 0.1 nM
